Values of other authors as cited in publication PMC8763792, “Pharmacokinetic/Pharmacodynamic Based Breakpoints of Polymyxin B for Bloodstream Infections Caused by Multidrug-Resistant Gram-Negative Pathogens” (Frontiers in Pharmacology, 2022).
Like-named read-outs stand apart in the source and are kept apart here. Positions of bridges follow the written chain, without caps; N, C: chain ends. Non-standard residues stand in square brackets, D forms with d. Residues, ends and D or L forms follow the SMILES beside them. *: point of attachment. X1 = CC[C@H](C)CCCCC(=O)*; Dab = NCC[C@H](N)C(=O)O

Key:
P. aeruginosa = conditions: 7,107 isolates, 45 nations, 1997-2016; ref Diekema et al., 2019
Source text: (§1) However, the success of this regimen will depend on regional susceptibility data. According to the SENTRY antimicrobial surveillance program for bloodstream infections (data collected from 45 nations including China between 1997 and 2016) ([Diekema et al., 2019]), the MIC90 of colistin for P. aeruginosa (7,107 isolates), A. baumannii or A. calcoaceticus ...

Enterobacteriaceae = conditions: 54,476 isolates, 45 nations, 1997-2016; ref Diekema et al., 2019
Source text: as §1

[1] = system: A. baumannii or A. calcoaceticus; conditions: 3,124 isolates, 45 nations, 1997-2016; ref Diekema et al., 2019
Source text: as §1

[2] = critically-ill patients, ref Sandri et al., 2013, Nation et al., 2017
Protocol: Removal of the “susceptible” interpretation category for polymyxins by CLSI was driven primarily by lung infection data ([He et al., 2013]; [Landersdorfer et al., 2018]). […] For bloodstream infections, the average steady-state concentrations (C ss,avg) achieved with intravenously administered polymyxin B (0.45–3.38 mg/kg/day) or CMS (2–18 MIU/day) are 2–3 mg/L (polymyxin B and colistin) in critically-ill p ...

K. pneumoniae = conditions: dash in Table S1 explained, ref Landersdorfer, C.B., 2018
Source text: Supplement DataSheet1.zip/Table 1.DOCX, table 1: Table S1.

[3] = Protocol: The area under the unbound concentration-time curve over 24 h to the MIC ratio (fAUC0–24h/MIC) is the most predictive PK/PD index for polymyxins ([Tam et al., 2005]; [Bergen et al., 2008]; [Bergen et al., 2010]; [Cheah et al., 2015]; [Landersdorfer et al., 2018]). PK/PD targets of 1-log10 CFU and 2-log10 CFU reductions in colony forming units (CFU)/thigh were derived from dose-fractionation studies of polymyxin B (K. pneumoniae) and colistin (P. aeruginosa and A. baumannii) in murine thigh infection models (Supplementary Table S1; [Cheah et al., 2015]; [Landersdorfer et al., 2018]). Given poly ... || The recommended dose of intravenously administered polymyxin B throughout much of the world is 1.5–2.5 mg/kg/day with a loading dose of 2–2.5 mg/kg ([Tsuji et al., 2019]). In China, the only brand of polymyxin B currently available has a recommended intravenous dose of 50–100 mg/day (Polymyxin B for injection ([Daily Med, 2017]), equivalent to 0.83–1.66 mg/kg/day (0.42–0.83 mg/kg/12 h) for a 60 kg patient. Importantly, [Lakota et al. (2018)] proposed that for pathogens with MICs ≤2 mg/L, the target AUC0–24h,ss for polymyxin B should be 50–100 mg h/L. In our study, the polymyxin B AUC0–24h,ss a ...
[4] = system: extensively-drug resistant Gram-negative bacteria; conditions: polymyxin B-based regimens 100-200 mg/day, ≥5 days; bloodstream infection; ref Zhao et al., 2020
Source text: This is in agreement with othe ...

| Compound | MIC90 (P. aeruginosa) [µg/mL] | MIC90 (Enterobacteriaceae) [µg/mL] | MIC90 [1] [µg/mL] | Average steady-state concentration (Css,avg) ([2]; colistin after intravenous CMS 2-18 MIU/day) [ng/mL] | PK/PD target fAUC0-24h/MIC, 2-log10 CFU killing (K. pneumoniae) | Unbound fraction (f) in plasma ([3]; plasma, ref Sandri et al., 2013) [%] | Protein binding ([3]; ref Zavascki et al., 2008) | 28-day all-cause mortality [4] [%] | Clearance rate of microorganisms [4] [%] | Overall effectiveness (cure or improvement) [4] [%] | Average steady-state concentration (Css,avg) ([2]; intravenous polymyxin B 0.45-3.38 mg/kg/day) [ng/mL] |
| --- | --- | --- | --- | --- | --- | --- | --- | --- | --- | --- | --- |
| colistin | 2 | > 4 | 2 | 2000 to 3000 |  |  |  |  |  |  |  |
| CC[C@H](C)CCCCC(=O)N[C@@H](CCN)C(=O)N[C@H](C(=O)N[C@@H](CCN)C(=O)N[C@H]1CCNC(=O)[C@H]([C@@H](C)O)NC(=O)[C@H](CCN)NC(=O)[C@H](CCN)NC(=O)[C@H](CC(C)C)NC(=O)[C@@H](Cc2ccccc2)NC(=O)[C@H](CCN)NC1=O)[C@@H](C)O [polymyxin B] (X1-[Dab]T[Dab][Dab][Dab][dF]L[Dab][Dab]T; lactam 4-C (inferred); N-terminus assumed) |  |  |  |  | unable to produce a 2-log10 CFU decrease | 42 | 78.5–92.4% | 41.0 | 65.2 | 59.0 | 2000 to 3000 |
